Data published in US4748161A, “Triterpenyl esters of organic acids and hypolipidemic agents composed of them” (Amano Pharmaceutical Co., Ltd., priority 1984, dated 1988).
Read-outs that look alike come from different tables or passages of the source.

Tests used:
[1] = tested on: serum lipids and serum lipid hydroperoxide; assay: Pharmacological test method B for anti-hyperlipidemic activity (serum lipids, 4 weeks feeding); type: in vivo, male Wistar strain rats; set-up: AI Diff.: unit not given here; settings: for AI [(TC - HDL-C)/(HDL-C)] / HDL-C in serum / LPO in serum / PL in serum / TC in serum / TG in serum: 1% in hyperlipidemic diet, 4 weeks; for change in vivo at 1 % in diet: Rattus norvegicus, po, 672 h; for change in vivo at 1 % in diet / AI Diff. / HDL-C Diff. / LPO Diff. / PL Diff. / TC % of diff. / TC Diff. / TG Diff.: versus control group; for HDL-C rise compared with normal diet group: versus normal diet group
Description: Pharmacological test method B for anti-hyperlipidemic acitivity (the term "method B" was used in the present specification)
(§1) Male Wistar strain rats (100±1 g, each 8 rats were formed into a group except that the control group fed with a hyperlipidemic diet was formed of 16 rats) were used as test animals. A powdery diet (CE-2, supplied by Clea Japan, Inc.) was used as ordinary diet. The hyperlipidemic diet was prepared by fortifying the ordinary diet with cholesterol (1%) and cholic acid (0.5%). Each test compound (1%) for administration was admixed with the hyperlipidemic diet. Each two rats were kept in a cage and given the prescribed diet and water ad libitum. Thus the rats were fed for 4 weeks at a constant temperature of 23±1° C. and a constant R.H. of 55±5%. Finally, the rats were fasted from food except water for 16 hours (from 4 p.m. of the 28th test day to 8 a.m. of the 29th test day), and under anesthesia with pentbarbital sodium (tradename: Nembutal), blood was taken from each rat through the descending abdominal arota. Then, TC, HDL-C, TG, PL, and LPO in the serum were measured in the following manner.
A TC kit-K (supplied by Nippon Shoji Kaisha, Ltd.) was used. The principle of this determination is as follows: The ester of cholesterol in the serum is hydrolyzed with cholesterol-ester hydrolase into free cholesterol and fatty acids. All the free cholesterol is oxidized with cholesterol oxydase to form Δ^4 -cholestenone and hydrogen peroxide. Phenol and 4-aminoantipyrin are oxidatively condensed together by the formed hydrogen peroxide and peroxydase. The produced red quinone coloring matter is measured by colorimetry for absorbance at 500 nm using a spectrophotometer, thereby determining the TC:
The color-developing liquid (3.0 ml) is well mixed with the sample serum (0.02 ml). The mixture once heated at 37° C. for 15 minutes, is measured for absorbance at 500 nm with a spectrophotometer. The found absorbance is denoted by EA. On the other hand, the color-developing liquid (3.0 ml) is well mixed with the standard solution. The mixture is treated and measured for absorbance at 500 nm in the same manner as the above. This found absorbance is denoted by ES. Both EA and ES are determined with reference to the value of the blank test conducted using the color-developing liquid (3.0 ml) alone. [formula]
An HDL-C kit-N (supplied by Nippon Shoji Kaisha, Ltd.) was used. […] (VLDL) and lo density lipoprotein (LDL) in the serum is precipitated by the action of heparin. The precipitate is separated by centrifugation. High density lipoprotein (HDL) is dissolved in the separated supernatant. Esters of cholesterol in this fraction is hydrolyzed with cholesterol-ester hydrolase into free cholesterol and fatty acids. All the free cholesterol is oxidized with cholesterol oxydase to form Δ^4 -cholestenone and hydrogen peroxide. Phenol and 4-aminoantipyrine are oxidatively condensed together by the formed hydrogen peroxide and peroxydase. The produced red quinone coloring matter is measured by colorimetry for absorbance at 500 nm using a spectrophotometer, thereby determining the HDL-C.
A PL kit-K (supplied by Nippon Shoji Kaisha, Ltd.) was used for the determination. Lecithin, sphingomyelin, and lysolecithin are decomposed by phospholipase D into choline and phosphatidic acid, N-acylsphingosyl phosphate, or lysophosphatidic acid, respectively. The resulting choline is quantitatively decomposed by choline oxydase into hydrogen peroxide and betaine. With this hydrogen peroxide, and aid of peroxydase, phenol and 4-aminoantipyrin are condensed into red quinone pigment, then the absorbance at 500 nm of which is measured with a spectrophotometer, thereby determining the PL. […]

[2] = Body weight of rats in method B; set-up: species or system male Wistar strain rats; settings: rat, in vivo
Description: as §1

COc1cc(C=C(C)C(=O)OC2CCC34CC35CCC3(C)C(C(C)CCC=C(C)C)CCC3(C)C5CCC4C2(C)C)ccc1O (stereo not drawn) [Example 114, cycloartenyl ester of 4-hydroxy-3-methoxy-α-methylcinnamic acid]
AI [(TC - HDL-C)/(HDL-C)] [1]: 4.711
HDL-C in serum [1]: 24.2 mg/dL
LPO in serum [1]: 2.04 nmol/mL
PL in serum [1]: 96.7 mg/dL
TC in serum [1]: 138.2 mg/dL
TG in serum [1]: 39.0 mg/dL
change in vivo at 1 % in diet ([1]; read-out: AI % of diff.): -78.4%
change in vivo at 1 % in diet ([1]; read-out: HDL-C % of diff.): 79.3%
change in vivo at 1 % in diet ([1]; read-out: LPO % of diff.): -27.7%
change in vivo at 1 % in diet ([1]; read-out: PL % of diff.): -31%
change in vivo at 1 % in diet ([1]; read-out: TG % of diff.): -31%
AI Diff. [1]: -17.05
HDL-C Diff. [1]: +10.7 mg/dl
LPO Diff. [1]: -0.78 nmol/mL
PL Diff. [1]: -43.4 mg/dL
TC % of diff. [1]: -55.0%
TC Diff. [1]: -169.1 mg/dL
TG Diff. [1]: -17.5 mg/dL
Body weight during feed period, 1st day [2]: 105 ± 3.3 g
Body weight during feed period, 8th day [2]: 145 ± 9.5 g
Body weight during feed period, 15th day [2]: 194 ± 18.0 g
Body weight during feed period, 22nd day [2]: 247 ± 16.6 g
Body weight during feed period, 28th day [2]: 277 ± 14.9 g
Body weight just before blood sampling, 29th day [2]: 265 ± 14.5 g

CCOc1cc(C=C(C)C(=O)OC2CCC34CC35CCC3(C)C(C(C)CCC(C)=C(C)C)CCC3(C)C5CCC4C2(C)C)ccc1O (stereo not drawn) [Example 140, cyclobranyl ester of 3-ethoxy-4-hydroxy-α-methylcinnamic acid]
AI [(TC - HDL-C)/(HDL-C)] [1]: 2.602
HDL-C in serum [1]: 54.8 mg/dL
LPO in serum [1]: 2.02 nmol/mL
PL in serum [1]: 98.0 mg/dL
TC in serum [1]: 197.4 mg/dL
TG in serum [1]: 52.4 mg/dL
change in vivo at 1 % in diet ([1]; read-out: AI % of diff.): -88%
change in vivo at 1 % in diet ([1]; read-out: HDL-C % of diff.): 306%
change in vivo at 1 % in diet ([1]; read-out: LPO % of diff.): -28.4%
change in vivo at 1 % in diet ([1]; read-out: PL % of diff.): -30%
change in vivo at 1 % in diet ([1]; read-out: TG % of diff.): -7.3%
AI Diff. [1]: -19.16
HDL-C Diff. [1]: +41.3 mg/dl
LPO Diff. [1]: -0.80 nmol/mL
PL Diff. [1]: -42.1 mg/dL
TC % of diff. [1]: -35.8%
TC Diff. [1]: -109.9 mg/dL
TG Diff. [1]: -4.1 mg/dL
HDL-C rise compared with normal diet group [1]: remarkable rises
Body weight during feed period, 1st day [2]: 105 ± 3.6 g
Body weight during feed period, 8th day [2]: 147 ± 9.5 g
Body weight during feed period, 15th day [2]: 194 ± 17.2 g
Body weight during feed period, 22nd day [2]: 246 ± 15.8 g
Body weight during feed period, 28th day [2]: 273 ± 18.7 g
Body weight just before blood sampling, 29th day [2]: 261 ± 15.6 g

CCOc1ccc(N)cc1C=CC(=O)OC1CCC23CC24CCC2(C)C(C(C)CCC=C(C)C)CCC2(C)C4CCC3C1(C)C (centres unmarked) [Example 183, Cycloartenyl ester of 5-amino-2-ethoxycinnamic acid]
AI [(TC - HDL-C)/(HDL-C)] [1]: 7.356
HDL-C in serum [1]: 29.2 mg/dL
LPO in serum [1]: 2.08 nmol/mL
PL in serum [1]: 125.7 mg/dL
TC in serum [1]: 244.0 mg/dL
TG in serum [1]: 65.2 mg/dL
Body weight during feed period, 1st day [2]: 105 ± 3.9 g
Body weight during feed period, 8th day [2]: 142 ± 8.8 g
Body weight during feed period, 15th day [2]: 189 ± 11.9 g
Body weight during feed period, 22nd day [2]: 239 ± 16.5 g
Body weight during feed period, 28th day [2]: 268 ± 20.9 g
Body weight just before blood sampling, 29th day [2]: 257 ± 18.8 g

C=C(CCC(C)C1CCC2(C)C3CCC4C(C)(C)C(OC(=O)C(C)=Cc5ccc(O)c(OC)c5)CCC45CC35CCC12C)C(C)C (stereo not drawn) [Example 118, 24-methylenecycloartanyl ester of 4-hydroxy-3-methoxy-α-methylcinnamic acid]
AI [(TC - HDL-C)/(HDL-C)] [1]: 1.943
HDL-C in serum [1]: 47.4 mg/dL
LPO in serum [1]: 2.08 nmol/mL
PL in serum [1]: 98.3 mg/dL
TC in serum [1]: 139.5 mg/dL
TG in serum [1]: 51.4 mg/dL
change in vivo at 1 % in diet ([1]; read-out: AI % of diff.): -91.9%
change in vivo at 1 % in diet ([1]; read-out: HDL-C % of diff.): 251%
change in vivo at 1 % in diet ([1]; read-out: LPO % of diff.): -26.2%
change in vivo at 1 % in diet ([1]; read-out: PL % of diff.): -29.8%
change in vivo at 1 % in diet ([1]; read-out: TG % of diff.): -9%
AI Diff. [1]: -19.82
HDL-C Diff. [1]: +33.9 mg/dl
LPO Diff. [1]: -0.74 nmol/mL
PL Diff. [1]: -41.8 mg/dL
TC % of diff. [1]: -54.6%
TC Diff. [1]: -168.2 mg/dL
TG Diff. [1]: -5.1 mg/dL
HDL-C rise compared with normal diet group [1]: remarkable rises
Body weight during feed period, 1st day [2]: 106 ± 3.4 g
Body weight during feed period, 8th day [2]: 147 ± 9.2 g
Body weight during feed period, 15th day [2]: 192 ± 17.8 g
Body weight during feed period, 22nd day [2]: 243 ± 15.4 g
Body weight during feed period, 28th day [2]: 274 ± 18.4 g
Body weight just before blood sampling, 29th day [2]: 259 ± 20.4 g

CCC(=Cc1ccc(O)cc1)C(=O)OC1CCC23CC24CCC2(C)C(C(C)CCC=C(C)C)CCC2(C)C4CCC3C1(C)C (stereo not drawn) [Example 130, cycloartenyl ester of 4-hydroxy-α-ethylcinnamic acid]
AI [(TC - HDL-C)/(HDL-C)] [1]: 8.586
HDL-C in serum [1]: 21.0 mg/dL
LPO in serum [1]: 2.07 nmol/mL
PL in serum [1]: 107.2 mg/dL
TC in serum [1]: 201.3 mg/dL
TG in serum [1]: 53.4 mg/dL
change in vivo at 1 % in diet ([1]; read-out: AI % of diff.): -60.5%
change in vivo at 1 % in diet ([1]; read-out: HDL-C % of diff.): 55.6%
change in vivo at 1 % in diet ([1]; read-out: LPO % of diff.): -26.6%
change in vivo at 1 % in diet ([1]; read-out: PL % of diff.): -23.5%
change in vivo at 1 % in diet ([1]; read-out: TG % of diff.): -5.5%
AI Diff. [1]: -13.17
HDL-C Diff. [1]: +7.5 mg/dl
LPO Diff. [1]: -0.75 nmol/mL
PL Diff. [1]: -32.9 mg/dL
TC % of diff. [1]: -34.5%
TC Diff. [1]: -106.0 mg/dL
TG Diff. [1]: -3.1 mg/dL
Body weight during feed period, 1st day [2]: 105 ± 3.3 g
Body weight during feed period, 8th day [2]: 144 ± 9.3 g
Body weight during feed period, 15th day [2]: 194 ± 18.1 g
Body weight during feed period, 22nd day [2]: 245 ± 15.7 g
Body weight during feed period, 28th day [2]: 271 ± 18.0 g
Body weight just before blood sampling, 29th day [2]: 258 ± 20.2 g
